The source of these data is PubChem BioAssay AID1645864 (Buhrlage Lab, Dana-Farber Cancer Institute and Novartis …, 2021).

Usually IC50 stands for the point on the concentration scale where inhibition reaches its midpoint.

Calls of active or inactive are those of the source.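 The calls were made as follows: active = maximal inhibition of USP17 at or above 30% in the confirmation dose-response, a value not among the printed readouts; inactive = the rest.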

The target in this test is Ubiquitin carboxyl-terminal hydrolase 17-like protein 5 (Homo sapiens) (UniProt A8MUK1). The experiment in a line: ubiquitin-specific protease 17 inhibitors, concentration series, biochemical, verification of primary actives (AID 1645864). As to conditions: purified USP17, ubiquitin-rhodamine cleavage fluorescence, 3 h.
Sequence of Ubiquitin carboxyl-terminal hydrolase 17-like protein 5 (Homo sapiens) (A8MUK1 whole entry, looked up): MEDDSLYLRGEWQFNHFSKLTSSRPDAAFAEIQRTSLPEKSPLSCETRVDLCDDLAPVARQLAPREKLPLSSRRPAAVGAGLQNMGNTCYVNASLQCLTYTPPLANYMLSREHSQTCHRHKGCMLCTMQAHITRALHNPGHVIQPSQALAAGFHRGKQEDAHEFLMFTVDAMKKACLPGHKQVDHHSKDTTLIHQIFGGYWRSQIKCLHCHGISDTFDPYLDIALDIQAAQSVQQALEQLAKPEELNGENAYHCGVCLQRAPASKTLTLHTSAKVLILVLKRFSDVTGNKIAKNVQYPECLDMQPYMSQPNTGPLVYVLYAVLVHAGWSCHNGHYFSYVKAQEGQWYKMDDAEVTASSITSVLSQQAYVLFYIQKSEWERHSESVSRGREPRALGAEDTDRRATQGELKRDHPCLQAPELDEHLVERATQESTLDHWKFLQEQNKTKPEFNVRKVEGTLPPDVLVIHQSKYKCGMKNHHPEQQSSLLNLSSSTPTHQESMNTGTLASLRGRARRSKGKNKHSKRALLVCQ
As for `CC(C(=O)NCc1ccc(F)cc1)n1cccc1C(=O)c1ccccc1` (centres undefined), the IC50 was > 50 µM (inactive).
Consider `C=Cc1ccc(Cn2cc(S(=O)(=O)N3CCOCC3)ccc2=O)cc1`, for which the IC50 is 40.6 µM.
With `O=C(Nc1ccccc1)C1CCCN(C(=O)c2cc3ccccc3[nH]2)C1` (centres undefined), the IC50 was 38.7 µM.
Consider `CS(=O)(=O)n1nc(NCc2ccc(F)cc2)nc1NCc1ccc(F)cc1`, for which the IC50 is > 50 µM (inactive).
Consider `FC(F)(F)c1ccccc1CCN1CCc2nc3ncc(Cl)cc3cc2C1`, for which the IC50 is > 50 µM (inactive).
With `CC(C)NC(=O)Cn1ccn2nc(-c3ccc(Cl)cc3)cc2c1=O` the figure was 3.85 µM; with `O=C(COc1ccc2c(c1)CCC2)Nc1ccc2c(c1)CCC2`, 19.1 µM.
In the case of `COc1ccc(-n2ccc(=O)c(-c3nc(-c4ccccc4F)no3)n2)cc1OC` it was > 50 µM (inactive); in that of `O=C(Nc1ccc2c(c1)OCO2)c1cc(-c2cccnc2)n(-c2ccccc2)n1`, 47.6 µM; in that of `O=C(Nc1ccc(F)cc1)Nc1ccccc1OCc1cc(=O)n2ccccc2n1`, 28.7 µM.
Consider `COc1ccccc1CC(=O)Nc1nc2ccccc2[nH]1`, for which the IC50 was 33.3 µM.
Turning to `O=c1[nH]cccc1NS(=O)(=O)c1ccc(F)cc1`, the IC50 was > 50 µM (inactive).
With `c1csc(CCN2CCc3nc4cccnc4cc3C2)c1` the figure was > 50 µM (inactive); with `Cc1c(C(=O)NCc2cccc(Br)c2)oc2c1-c1[nH]ncc1CC2`, 29.1 µM.
Take `Fc1ccc(CN2CCc3nc4cccnc4cc3C2)cc1`: the IC50 is > 50 µM (inactive).
As for `CCOC(=O)c1ccc(NC(=O)Cn2c(=O)n(CC(=O)NCc3ccco3)c(=O)c3ccccc32)cc1`, the IC50 is 2.89 µM.
With `COc1cccc(CNC(=O)c2ccc3c(c2)NC(=O)C2CCCN32)c1OC` (centres undefined) the figure was > 50 µM (inactive); with `COCCCNC(=O)c1ccc(Cn2c(=O)c3ccccc3n(CC(=O)NC3CCCCC3)c2=O)cc1`, 30.6 µM; with `CN=C(N)NCCC/C=C/CCCC(C)CC(C)C1OC(=O)/C=C/C(C)C(O)CC(O)C(C)C(O)CCC(C)C(O)CC2(O)OC(CC(OC(=O)CC(=O)O)CC(O)CC(O)C(C)C(O)/C=C/C1C)CC(O)C2O` (centres undefined), > 50 µM (inactive).
On to `O=C(OC1CSc2nc3ccccc3n2C1)c1ccc([N+](=O)[O-])o1` (centres undefined), for which the IC50 is 30.5 µM.
With `CCn1c(SCc2cccc(C)c2)nnc1-c1cnccn1` the figure was > 50 µM (inactive).
For `O=C1C[C@@H]2O[C@H](CNC(=O)[C@@H]3CN(CCN3C(=O)C3CCOCC3)C(=O)[C@@H]3C[C@@H](CN3Cc3ccc(F)c(F)c3)N1)[C@@H](O)[C@H]2O`, the IC50 is > 50 µM (inactive).
Take `Cc1c(-c2nc(-c3ccccc3Cl)no2)nnn1-c1cccc(F)c1`: the IC50 is 6.66 µM.
Regarding `CCn1ccc2c(cc(C(=O)Nc3cc(F)ccc3F)n2C)c1=O`, the IC50 was > 50 µM (inactive).
In the case of `c1ccc2c(c1)CCc1c-2nc2ccccc2c1N1CCOCC1` it was > 50 µM (inactive).
`COc1cc(Cn2cnc3c([nH]c4ccc(Br)cc43)c2=O)cc(OC)c1`: the IC50 was 3.75 µM.
`CC(=O)c1ccc(Cc2ncc(C(F)(F)F)cc2Cl)s1`: the IC50 is > 50 µM (inactive).
`COc1cccc(-n2c(=O)[nH]c3c(C(N)=O)nc(-c4ccc(OCc5ccccc5)cc4)nc32)c1`: the IC50 is > 50 µM (inactive).
Turning to `Cc1ccc(S(=O)(=O)N2CCC3(CC2)NC(=O)c2ccccc2N3)cc1C`, the IC50 is 29.8 µM.
For `O=C(Cn1c(=O)nc(-c2ccccc2)c2ccccc21)NCc1ccc2c(c1)OCO2`, the IC50 was 27.8 µM.
With `Cc1ccc(N=Cc2sc(O)c3ccccc23)c(C)c1`, the IC50 is > 50 µM (inactive).
In the case of `CCN(Cc1ccccc1)S(=O)(=O)c1ccc(C(=O)Nc2ccc3c(c2)OCCO3)cc1`, the IC50 was > 50 µM (inactive).
With `CC1=C2C(=NCCN1)C(=O)N(c1ccccc1)C2c1cccnc1` (centres undefined) the figure was > 50 µM (inactive).
In the case of `CCOC(=O)CSc1nnc(-c2cnn(-c3ccccc3)c2N)o1`, the IC50 is 20.5 µM.
Regarding `O=C(NC1CCS(=O)(=O)C1)c1ccc(N2CCC(Cc3ccccc3)CC2)nn1` (centres undefined), the IC50 is > 50 µM (inactive).
With `CC(=O)c1ccc(NC(=O)/C(=C/c2ccco2)n2nnnc2-c2ccccc2)cc1` the figure was > 50 µM (inactive); with `Cc1ccn(-c2ccc(NC(=O)C3CCCCC3)cc2)n1`, 20.2 µM; with `COc1ccc(C(=O)Nc2ccc3c(c2)C(=O)N(C)c2ccccc2O3)cc1`, > 50 µM (inactive).
In the case of `O=C(Nc1cc(-c2cccnc2)no1)c1ccc(F)c(F)c1`, the IC50 was 19.3 µM.
Regarding `Cc1ccc(C2c3cccn3CCN2C(=O)Nc2ccccc2)cc1` (centres undefined), the IC50 is > 50 µM (inactive).
On to `O=C(NCc1ccccc1)c1ccc2c(=O)n(-c3ccccc3)c(=O)[nH]c2c1`, for which the IC50 is 21.8 µM.
In the case of `COc1cc(Cl)c(C)cc1NC(=O)Cn1c(=O)n(CC(=O)NCc2ccco2)c(=O)c2ccccc21` it was 2.37 µM; in that of `Cc1nc(Nc2c3ccccc3nc3ccccc23)sc1C`, > 50 µM (inactive).
Consider `CCOC(=O)C1C(c2ccc(Br)cc2)C2(C(=O)c3ccccc3C2=O)C2C=Cc3ccccc3N12` (centres undefined), for which the IC50 is > 50 µM (inactive).
Regarding `CCOc1ccc(CCNC(=O)c2cccc3c2C(=O)N(CCOC)C3)cc1OCC`, the IC50 was > 50 µM (inactive).
In the case of `CO[C@H]1CC[C@H](O)c2c1oc1c3c4c(c(O)c1c2=O)-c1c(cc2c(Cl)c(C)n(N)c(=O)c2c1O)C[C@@H]4OCO3` it was 14 µM; in that of `COc1cccc2c1C(=O)c1ccc3c(c1C2=O)C(=O)CC(C)(O)C3` (centres undefined), 36.4 µM.
With `CCCc1nc2sc3c(N(CC)CC)ncnc3c2c2c1CCC2` the figure was > 50 µM (inactive); with `O=C(Nc1ccc2c(c1)OCCO2)c1cc(CN2CCOCC2)on1`, > 50 µM (inactive); with `Cc1nnc(NCc2cccnc2)c2c1nnn2Cc1ccccc1Cl`, 34 µM.
As to `Cc1cc(SCc2ncon2)c(C)cc1Cl`, the IC50 is > 50 µM (inactive).
With `C[C@@H](C(=O)NCc1ccc(F)cc1)N1C(=O)N2CCc3c([nH]c4ccccc34)[C@@]2(C)C1=O` the figure was 5.77 µM.
With `COc1ccc(C(C)=O)cc1CC(=O)Nc1nc2ccccc2[nH]1`, the IC50 is > 50 µM (inactive).
With `COc1ccc2cc3c(nc2c1)OC(=O)N(CCc1cccc(F)c1)C3` the figure was 0.0729 µM.
In the case of `Cc1cc(O)cc2cc3c(c(O)c12)C(=O)CCC3O` (centres undefined) it was > 50 µM (inactive).
In the case of `CC(=O)Nc1ccc(-n2cnc(C(=O)NC(C)c3ccccc3)c2)nc1` (centres undefined), the IC50 is 29.2 µM.
For the compound `COc1ccc(NC(=O)Cn2cc(C(=O)c3ccc(F)cc3)c(=O)c3cc(C)ccc32)cc1`, the IC50 was 24 µM.
On to `COc1ccc(OCC(=O)Nc2ccc(C)c(OCc3cc(=O)n4ccccc4n3)c2)cc1`, for which the IC50 was 4.29 µM.
In the case of `Cc1cc(C)n2nc(CNc3cccc(Cl)c3)nc2n1` it was > 50 µM (inactive).
`CSc1nccc(-c2ccc(F)cc2)c1C#N`: the IC50 was 20.7 µM.
Regarding `O=c1c2cnc3nc(-c4cccnc4)nn3c2ccn1CCc1ccccc1`, the IC50 is > 50 µM (inactive).
On to `Cc1ccc(-n2c(-c3ccccc3)cn3c4c(=O)[nH]c(=O)n(C)c4nc23)cc1C`, for which the IC50 is 0.289 µM.
Regarding `COc1cccc(/C=C/C(=O)Nc2ccc(C)c(Cl)c2)c1`, the IC50 was 43.4 µM.
With `COc1cccc(NC(=O)Nc2ccc3nc4n(c(=O)c3c2)CCCC4)c1` the figure was 9.31 µM; with `CCc1nc(-c2cccc(NC(=O)c3ccc(C#N)cc3F)c2)no1`, > 50 µM (inactive); with `COc1ccc(CNC(=O)c2ccccc2N2C(=O)N3CCc4c([nH]c5ccccc45)[C@@]3(C)C2=O)cc1`, 29.8 µM.
In the case of `COc1ccc(-c2nc(C)c(C(=O)NCc3ccc(S(N)(=O)=O)cc3)s2)cc1` it was > 50 µM (inactive).
In the case of `Cc1ccc(CN2C(=O)c3cc4ccccc4n3CC2(C)C(=O)NCc2ccccc2)o1` (centres undefined) it was 26.7 µM; in that of `O=S(=O)(c1ccc(F)cc1)N1CCCC1c1ccnc(Nc2cnccn2)n1` (centres undefined), > 50 µM (inactive).
With `Cc1nnc(Sc2cc(C(=O)NCCN3CCCC3)c3ccccc3n2)s1`, the IC50 is 30 µM.
With `O=C(Cn1cnc2c(cnn2-c2ccc(Cl)cc2)c1=O)NCc1ccccc1Cl`, the IC50 was 3.43 µM.
`O=C(NCc1ccc(F)cc1)c1cc(-n2cnnn2)ccc1Cl`: the IC50 was 25.4 µM.
For the compound `Cc1nn(-c2ccccc2)c(C)c1C(=O)OCC(=O)Nc1cccc(C#N)c1`, the IC50 was > 50 µM (inactive).
As to `Nc1c(C(=O)NCc2ccc3c(c2)OCO3)nnn1Cc1ccc(Br)cc1F`, the IC50 was 2.8 µM.
Take `Cc1noc(C)c1COc1cccc(C(=O)Nc2cc(Cl)ccc2-n2cncn2)c1`: the IC50 is > 50 µM (inactive).
Turning to `O=C(CN(Cc1ccc(Cl)cc1)S(=O)(=O)c1ccc(Cl)cc1)N1CCOCC1`, the IC50 was > 50 µM (inactive).
Regarding `O=C(CSc1nncc2ccccc12)Nc1ccc2c(c1)OCO2`, the IC50 is > 50 µM (inactive).
In the case of `N#Cc1cccnc1N1CCN(C(=O)Nc2cccc3ccccc23)CC1`, the IC50 was 29.2 µM.
On to `O=S1(=O)NC(=NCCc2ccc(Cl)cc2Cl)c2ccccc21`, for which the IC50 was 36.4 µM.
Regarding `O=C(Cn1c(=O)n(Cc2ccc(F)cc2)c(=O)c2ncccc21)Nc1ccccc1`, the IC50 was 45.2 µM.
On to `COc1ccc(CCNC(=O)c2cc3ccccc3s2)cc1OC`, for which the IC50 was > 50 µM (inactive).
With `O=C(Nc1cccc(C(F)(F)F)c1)c1cc2c(s1)-c1ccccc1OC2` the figure was 2.15 µM; with `COCCNC(=O)c1ccn(-c2ccc3ccc(-c4ccncc4)cn23)n1`, > 50 µM (inactive).
With `O=C(Cn1nnc(-c2ccc(F)cc2)n1)NCCc1ccccc1`, the IC50 was 33.7 µM.
With `N#Cc1ccccc1Cn1c(=O)n(CCCCC(=O)NCc2ccco2)c(=O)c2ccccc21` the figure was 46.3 µM.
In the case of `COc1ccccc1C(=O)NCC(c1ccc2c(c1)CCCN2C)N1CCCC1` (centres undefined), the IC50 is > 50 µM (inactive).
With `Oc1cc(OCc2cccc(C(F)(F)F)c2)ccc1-c1ccn[nH]1` the figure was 21.2 µM.
With `Cc1cc(C)c2sc(N(CCCn3ccnc3)C(=O)Cc3ccccc3)nc2c1` the figure was 21.7 µM.
As to `Clc1ccc(C[n+]2cc(-c3ccc(Cl)cc3)n3c2CCC3)cc1`, the IC50 was > 50 µM (inactive).
